Source: ChEMBL document CHEMBL3885881, “DrugMatrix”

Organism: Rattus norvegicus
Assay: DrugMatrix - Regimen: Daily Repeat
Format: toxicity, organism-based, Sprague-Dawley
Parameters: regimen Daily Repeat, gender Male, age 6-8 weeks
Conditions: in vivo, po, route oral GAVAGE, vehicle 100 % WATER; for ABSOLUTE BASOPHIL / ABSOLUTE EOSINOPHIL / ABSOLUTE LYMPHOCYTE / ABSOLUTE MONOCYTE / ABSOLUTE SEGMENTED NEUTROPHIL / BASOPHIL / EOSINOPHIL / ERYTHROCYTE COUNT / HEMATOCRIT / HEMOGLOBIN / LEUKOCYTE COUNT / LYMPHOCYTE / MEAN CORPUSCULAR HEMOGLOBIN / MEAN CORPUSCULAR HEMOGLOBIN CONCENTRATION / MEAN CORPUSCULAR VOLUME / MONOCYTE / NEUTROPHIL / NUCLEATED RED BLOOD CELLS / PLATELET COUNT: tissue Blood; for ALANINE AMINOTRANSFERASE / ALBUMIN / ALKALINE PHOSPHATASE / ASPARTATE AMINOTRANSFERASE / BLOOD UREA NITROGEN / CARBON DIOXIDE / CHLORIDE / CHOLESTEROL / CREATINE PHOSPHOKINASE / CREATININE / GLUCOSE / LACTATE DEHYDROGENASE / LIPASE / PHOSPHORUS / POTASSIUM / SODIUM / TOTAL BILIRUBIN / TOTAL PROTEIN / URIC ACID: tissue Plasma
[1] = 300 mg/kg, 72 h, dose level Low, time 3 day
[2] = 300 mg/kg, 120 h, dose level Low, time 5 day
[3] = 1100 mg/kg, 72 h, dose level High, time 3 day
[4] = 1100 mg/kg, 120 h, dose level High, time 5 day

For O=C(O)CCNC(=O)c1ccc(/N=N/c2ccc(O)c(C(=O)O)c2)cc1 [BALSALAZIDE], the “ABSOLUTE BASOPHIL” value [1] was 0 CELLS/uL, the “ABSOLUTE EOSINOPHIL” value [1] was 0 CELLS/uL and the “ABSOLUTE LYMPHOCYTE” value [1] was 11801 CELLS/uL. The “ABSOLUTE MONOCYTE” value [1] was 66 CELLS/uL, the “ABSOLUTE SEGMENTED NEUTROPHIL” value [1] was 833 CELLS/uL and the BASOPHIL [1] was 0%. For the same molecule, the EOSINOPHIL [1] was 0%, the “ERYTHROCYTE COUNT” value [1] was 5.38 x10E6/uL and the HEMATOCRIT [1] was 33.73%. For the same molecule, the HEMOGLOBIN [1] was 13.5 G/DL, the “LEUKOCYTE COUNT” value [1] was 12.7 x10E3/uL and the LYMPHOCYTE [1] was 93.33%. For the same molecule, the “MEAN CORPUSCULAR HEMOGLOBIN” value [1] was 25.13 pg, the “MEAN CORPUSCULAR HEMOGLOBIN CONCENTRATION” value [1] was 40.03 G/DL and the “MEAN CORPUSCULAR VOLUME” value [1] was 62.7 fL. The MONOCYTE [1] was 0.33%, the NEUTROPHIL [1] was 6.33% and the “NUCLEATED RED BLOOD CELLS” value [1] was 0 /100WBC. For the same molecule, the “PLATELET COUNT” value [1] was 922 x10E3/uL, the “ALANINE AMINOTRANSFERASE” value [1] was 56.33 u/L and the ALBUMIN [1] was 4.23 G/DL. For the same molecule, the “ALKALINE PHOSPHATASE” value [1] was 481.33 u/L, the “ASPARTATE AMINOTRANSFERASE” value [1] was 94 u/L and the “BLOOD UREA NITROGEN” value [1] was 17.33 mg/dL. For the same molecule, the “CARBON DIOXIDE” value [1] was 29 mmol/L, the CHLORIDE [1] was 103.67 MEQ/L and the CHOLESTEROL [1] was 73.33 mg/dL. For the same molecule, the “CREATINE PHOSPHOKINASE” value [1] was 306.67 u/L, the CREATININE [1] was 0.22 mg/dL and the GLUCOSE [1] was 159.33 mg/dL. For the same molecule, the “LACTATE DEHYDROGENASE” value [1] was 328 u/L, the LIPASE [1] was 8 u/L and the PHOSPHORUS [1] was 13.87 mg/dL. For the same molecule, the POTASSIUM [1] was 6.3 MEQ/L, the SODIUM [1] was 144.33 MEQ/L and the “TOTAL BILIRUBIN” value [1] was 0.2 mg/dL. The “TOTAL PROTEIN” value [1] was 5.93 G/DL, the “URIC ACID” value [1] was 1.5 mg/dL and the “ABSOLUTE BASOPHIL” value [2] was 0 CELLS/uL. The “ABSOLUTE EOSINOPHIL” value [2] was 53.33 CELLS/uL, the “ABSOLUTE LYMPHOCYTE” value [2] was 8092.67 CELLS/uL and the “ABSOLUTE MONOCYTE” value [2] was 26.67 CELLS/uL. For the same molecule, the “ABSOLUTE SEGMENTED NEUTROPHIL” value [2] was 694 CELLS/uL, the BASOPHIL [2] was 0% and the EOSINOPHIL [2] was 0.67%. For the same molecule, the “ERYTHROCYTE COUNT” value [2] was 5.99 x10E6/uL, the HEMATOCRIT [2] was 38.2% and the HEMOGLOBIN [2] was 14.6 G/DL. The “LEUKOCYTE COUNT” value [2] was 8.87 x10E3/uL, the LYMPHOCYTE [2] was 91% and the “MEAN CORPUSCULAR HEMOGLOBIN” value [2] was 24.43 pg. For the same molecule, the “MEAN CORPUSCULAR HEMOGLOBIN CONCENTRATION” value [2] was 38.2 G/DL, the “MEAN CORPUSCULAR VOLUME” value [2] was 63.9 fL and the MONOCYTE [2] was 0.33%. For the same molecule, the NEUTROPHIL [2] was 8%, the “NUCLEATED RED BLOOD CELLS” value [2] was 0 /100WBC and the “PLATELET COUNT” value [2] was 965 x10E3/uL. The “ALANINE AMINOTRANSFERASE” value [2] was 61.67 u/L, the ALBUMIN [2] was 4.17 G/DL and the “ALKALINE PHOSPHATASE” value [2] was 384.67 u/L. The “ASPARTATE AMINOTRANSFERASE” value [2] was 83.67 u/L, the “BLOOD UREA NITROGEN” value [2] was 17.67 mg/dL and the “CARBON DIOXIDE” value [2] was 28.67 mmol/L. For the same molecule, the CHLORIDE [2] was 102 MEQ/L, the CHOLESTEROL [2] was 63.33 mg/dL and the “CREATINE PHOSPHOKINASE” value [2] was 238.33 u/L. The CREATININE [2] was 0.22 mg/dL, the GLUCOSE [2] was 182.67 mg/dL and the “LACTATE DEHYDROGENASE” value [2] was 142.67 u/L. The LIPASE [2] was 12.33 u/L, the PHOSPHORUS [2] was 14.5 mg/dL and the POTASSIUM [2] was 6.43 MEQ/L. For the same molecule, the SODIUM [2] was 146.73 MEQ/L, the “TOTAL BILIRUBIN” value [2] was 0.2 mg/dL and the “TOTAL PROTEIN” value [2] was 6.07 G/DL. The “URIC ACID” value [2] was 2.17 mg/dL, the “ABSOLUTE BASOPHIL” value [3] was 0 CELLS/uL and the “ABSOLUTE EOSINOPHIL” value [3] was 0 CELLS/uL. For the same molecule, the “ABSOLUTE LYMPHOCYTE” value [3] was 7596 CELLS/uL, the “ABSOLUTE MONOCYTE” value [3] was 55 CELLS/uL and the “ABSOLUTE SEGMENTED NEUTROPHIL” value [3] was 682.33 CELLS/uL. The BASOPHIL [3] was 0%, the EOSINOPHIL [3] was 0% and the “ERYTHROCYTE COUNT” value [3] was 5.29 x10E6/uL. The HEMATOCRIT [3] was 33.57%, the HEMOGLOBIN [3] was 13.27 G/DL and the “LEUKOCYTE COUNT” value [3] was 8.33 x10E3/uL. For the same molecule, the LYMPHOCYTE [3] was 91.33%, the “MEAN CORPUSCULAR HEMOGLOBIN” value [3] was 25.13 pg and the “MEAN CORPUSCULAR HEMOGLOBIN CONCENTRATION” value [3] was 39.5 G/DL. For the same molecule, the “MEAN CORPUSCULAR VOLUME” value [3] was 63.47 fL, the MONOCYTE [3] was 0.67% and the NEUTROPHIL [3] was 8%. The “NUCLEATED RED BLOOD CELLS” value [3] was 0 /100WBC, the “PLATELET COUNT” value [3] was 833.67 x10E3/uL and the “ALANINE AMINOTRANSFERASE” value [3] was 62.67 u/L. The ALBUMIN [3] was 4.33 G/DL, the “ALKALINE PHOSPHATASE” value [3] was 344.33 u/L and the “ASPARTATE AMINOTRANSFERASE” value [3] was 98.67 u/L. For the same molecule, the “BLOOD UREA NITROGEN” value [3] was 15 mg/dL, the “CARBON DIOXIDE” value [3] was 32.67 mmol/L and the CHLORIDE [3] was 101.67 MEQ/L. The CHOLESTEROL [3] was 84.33 mg/dL, the “CREATINE PHOSPHOKINASE” value [3] was 333 u/L and the CREATININE [3] was 0.49 mg/dL. For the same molecule, the GLUCOSE [3] was 160.33 mg/dL, the “LACTATE DEHYDROGENASE” value [3] was 159 u/L and the LIPASE [3] was 12 u/L. For the same molecule, the PHOSPHORUS [3] was 11.9 mg/dL, the POTASSIUM [3] was 5.97 MEQ/L and the SODIUM [3] was 145.53 MEQ/L. For the same molecule, the “TOTAL BILIRUBIN” value [3] was 0.27 mg/dL, the “TOTAL PROTEIN” value [3] was 6.1 G/DL and the “URIC ACID” value [3] was 0.67 mg/dL. The “ABSOLUTE BASOPHIL” value [4] was 0 CELLS/uL, the “ABSOLUTE EOSINOPHIL” value [4] was 0 CELLS/uL and the “ABSOLUTE LYMPHOCYTE” value [4] was 12609 CELLS/uL. For the same molecule, the “ABSOLUTE MONOCYTE” value [4] was 37.67 CELLS/uL, the “ABSOLUTE SEGMENTED NEUTROPHIL” value [4] was 1253.33 CELLS/uL and the BASOPHIL [4] was 0%. For the same molecule, the EOSINOPHIL [4] was 0%, the “ERYTHROCYTE COUNT” value [4] was 5.68 x10E6/uL and the HEMATOCRIT [4] was 35.73%. The HEMOGLOBIN [4] was 14.1 G/DL, the “LEUKOCYTE COUNT” value [4] was 13.9 x10E3/uL and the LYMPHOCYTE [4] was 91.33%. The “MEAN CORPUSCULAR HEMOGLOBIN” value [4] was 24.87 pg, the “MEAN CORPUSCULAR HEMOGLOBIN CONCENTRATION” value [4] was 39.47 G/DL and the “MEAN CORPUSCULAR VOLUME” value [4] was 62.93 fL. The MONOCYTE [4] was 0.33%, the NEUTROPHIL [4] was 8.33% and the “NUCLEATED RED BLOOD CELLS” value [4] was 0 /100WBC. The “PLATELET COUNT” value [4] was 1338 x10E3/uL, the “ALANINE AMINOTRANSFERASE” value [4] was 55.33 u/L and the ALBUMIN [4] was 4 G/DL. For the same molecule, the “ALKALINE PHOSPHATASE” value [4] was 346.67 u/L, the “ASPARTATE AMINOTRANSFERASE” value [4] was 106 u/L and the “BLOOD UREA NITROGEN” value [4] was 17.67 mg/dL. The “CARBON DIOXIDE” value [4] was 27 mmol/L, the CHLORIDE [4] was 104 MEQ/L and the CHOLESTEROL [4] was 55.33 mg/dL. The “CREATINE PHOSPHOKINASE” value [4] was 414 u/L, the CREATININE [4] was 0.14 mg/dL and the GLUCOSE [4] was 163.67 mg/dL. For the same molecule, the “LACTATE DEHYDROGENASE” value [4] was 452.33 u/L, the LIPASE [4] was 10 u/L and the PHOSPHORUS [4] was 12.77 mg/dL. The POTASSIUM [4] was 6.29 MEQ/L, the SODIUM [4] was 144.53 MEQ/L and the “TOTAL BILIRUBIN” value [4] was 0.17 mg/dL. The “TOTAL PROTEIN” value [4] was 5.57 G/DL and the “URIC ACID” value [4] was 1.53 mg/dL.
